Results from patent publication US20060111308A1, “Methods and compositions for therapeutic treatment” (priority 2004, published 2006).
Where two headings read alike, the source gives them in different places.

Legend:
[1] = system: adult subjects with chronic pain; assay: Human study of the effects of oral quercetin (Q) and analgesics on sedation, concentration and pain; assay type: in vivo
Protocol: An empiric trial on the effects of oral quercetin (Q) on sedation, concentration, and pain was conducted. Inclusion criteria included ongoing pain of at least 4/10 on the Likert scale, poor tolerance of current analgesic regimen (complaints of sedation, dizziness, inability to focus), and willingness to complete daily diaries.
Approximately 16 adult subjects with chronic pain were screened and 9 subjects were admitted to the trial. Their pain disorders included peripheral neuropathy (2), facial pain (2), cervical radiculopathy (2), lumbar spine disease (3). Their pre-existing medications included short acting opioids (Vicodin TID, Tramadol 50 mg Q4-6), high dose, long acting opioids (OxyContin 240 mg, Methadone 400 mg), Gabapentin (900 mg and 2700 mg), Ativan, Flexeril, and Soma 350 mg. Seven of the subjects were using at least two analgesic medications. Two subjects were using no current medications because of prior histories of sedation and dizziness during opioid trials.
Q (Sigma) 500 mg per gel capsule was compounded and supplied to all subjects by overnight mail. Subjects were instructed to complete daily diaries for 7 days and continue their baseline medications and regular activities. On approximately the 7th day, they were asked to begin twice daily dosing of 2 Q (1000 mg) capsules (total daily dose of Q, 2000 mg). Diaries were completed for 7 days. Individual diaries included rating sleep interference, focus, pain now, and worst pain over the prior 24 hours. Subjects were instructed that concomitant pain medications should not be altered without speaking with the investigator. Subjects were advised that they would be contacted by telephone every day or every other day to assess progress in the trial and any side effects associated with the addition of Q. At the end of the trial, patients were interviewed. They were asked to rate their satisfaction with the study medication (−2−+2) and its ability to modulate the CNS effects of their pain medications.

[2] = in vivo; cited from earlier work
[3] = system: mdr1a (P-gP) knockout (−/−) mouse; conditions: cited from earlier work; for sensitivity to fetal cleft palate: same doses as knockout mice
[4] = after 7 days of co-administration of Q (2000 mg daily, oral) and analgesics, FIG. 16
[5] = scale of −2 to 2, patients on opiate or MSD and Q

Row | SMILES | mean ratings for concentration improved [1, 4] | mean ratings for sleep improved [1, 4] | mean ratings for worst pain improved [1, 4] | mean ratings for pain now decreased ([1]; after 7 days of co-administration of Q (2000 mg daily, oral) and analgesics, all patients taking analgesic medications and Q, FIG. 16) | worst pain in the last 24 hrs (NPRS) ([1]; all patients after taking Q, 1 no pain, 10 worst, FIG. 7) | concentration rating (short term memory, focus, wakefulness) ([1]; all patients after taking Q, 1 perfect concentration, 10 worst, FIG. 6) | pain at the time the patients were called (pain now) ([1]; all patients after taking Q, FIG. 8) | sleep rating ([1]; all patients after taking Q, scale to 10 as worst, FIG. 5) | global assessment on the scale of −2 to 2 ([1]; all patients on opiate or MSD (membrane stabilizing drug) and modulator (Q), FIG. 15) | central withdrawal ([1]; opioid users taking Q) | patients reporting 2 in global assessment [1, 5] | patients reporting −2 in global assessment [1, 5] | pain on the scale from 1-10 (worst pain in last 24 hrs, pain at time of call) ([1]; two patients not on baseline meds, poor tolerance of systemic medications, FIG. 13 and 14) | serum half-life [2] [h] | sensitivity to fetal cleft palate ([3]; heterozygous (+/−) mice) | sensitivity to fetal cleft palate ([3]; homozygous (+/+) mice) | incidence of fetal cleft palate ([3]; mdr1a knockout mice) [%]
1 | O=c1c(O)c(-c2ccc(O)c(O)c2)oc2cc(O)cc(O)c12 [Q, quercetin] | over 60% | more than 25% | more than 25% | more than 70% | overall improvement | overall improvement | overall improvement | overall improvement | overall improvement | noted in 3 | three | none | brought the pain down | 19 to 25 |  |  | 
2 | CC[C@H](C)[C@H]1O[C@]2(C=C[C@@H]1C)C[C@@H]1C[C@@H](C/C=C(\C)[C@@H](O[C@H]3C[C@H](OC)[C@@H](O[C@H]4C[C@H](OC)[C@@H](O)[C@H](C)O4)[C@H](C)O3)[C@@H](C)/C=C/C=C3\CO[C@@H]4[C@H](O)C(C)=C[C@@H](C(=O)O1)[C@]34O)O2 [avermectin] |  |  |  |  |  |  |  |  |  |  |  |  |  |  | less sensitive | insensitive | 100
